Measured values published in PubChem BioAssay AID434951 (Broad Institute, 2010).
Activity calls are given as the source filed them.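 How the source made its calls: active means a fitted half-maximal concentration EC50 for the rise in nuclear signal no higher than ten times the top dose tested; inconclusive means flat fit with activity between 30% and 70%, or unusable fit; inactive means EC50 beyond ten times the top dose.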

molecular target: Hypoxia-inducible factor 1-alpha (Homo sapiens) (UniProt Q16665); assay: HIF pathway activation, GFP-HIF1alpha translocation – imaging, fluorescence, U2OS GFP-HIF1alpha, confirmation (AID 434951); settings: U2OS GFP-HIF1alpha nuclear intensity, high-content imaging
Sequence (Q16665 whole entry, looked up): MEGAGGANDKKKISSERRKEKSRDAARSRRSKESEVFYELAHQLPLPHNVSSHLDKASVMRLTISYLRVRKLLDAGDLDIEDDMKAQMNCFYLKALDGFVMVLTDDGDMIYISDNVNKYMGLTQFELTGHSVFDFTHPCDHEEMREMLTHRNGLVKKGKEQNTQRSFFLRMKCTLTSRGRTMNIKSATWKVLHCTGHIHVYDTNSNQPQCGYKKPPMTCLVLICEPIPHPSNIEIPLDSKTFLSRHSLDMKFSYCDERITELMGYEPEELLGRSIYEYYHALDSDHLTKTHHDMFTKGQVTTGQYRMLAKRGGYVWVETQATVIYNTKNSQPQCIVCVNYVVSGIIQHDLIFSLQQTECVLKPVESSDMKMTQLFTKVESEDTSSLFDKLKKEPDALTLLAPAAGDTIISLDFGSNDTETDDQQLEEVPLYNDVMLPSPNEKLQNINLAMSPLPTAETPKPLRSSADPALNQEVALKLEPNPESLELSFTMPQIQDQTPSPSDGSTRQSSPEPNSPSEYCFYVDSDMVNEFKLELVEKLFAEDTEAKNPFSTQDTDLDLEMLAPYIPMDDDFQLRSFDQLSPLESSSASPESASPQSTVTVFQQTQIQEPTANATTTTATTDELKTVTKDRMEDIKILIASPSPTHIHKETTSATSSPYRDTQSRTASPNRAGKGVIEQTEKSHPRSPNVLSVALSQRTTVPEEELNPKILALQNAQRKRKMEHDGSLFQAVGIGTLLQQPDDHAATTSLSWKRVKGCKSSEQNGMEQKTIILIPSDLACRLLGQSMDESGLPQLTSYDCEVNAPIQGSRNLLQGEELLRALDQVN

Row | SMILES | EC50
1 | CN(C)CCCN(C(=O)CCS(=O)(=O)c1ccccc1)c1nc2cc3c(cc2s1)OCO3 | > 35 µM (inactive)
2 | COC(=O)Cc1ccc(NC(=S)NC(C)(C)C)cc1 | > 35 µM (inactive)
3 | CC(C)(C)NC(=O)COC(=O)c1ccc(Cl)nc1 | > 35 µM (inactive)
4 | CC(C(=O)N1CCOCC1)N1c2cccc3cccc(c23)S1(=O)=O (stereo not given) | > 35 µM (inactive)
5 | COc1cccc(Nc2n[nH]c(=S)s2)c1 | > 35 µM (inactive)
6 | N#C/C(=C(/O)c1ccc(F)cc1)c1nc2ccccc2s1 | > 35 µM (inactive)
7 | Cc1ccc(-c2cc(C(=O)N3CCCCCC3)no2)cc1 | > 35 µM (inactive)
8 | COc1ccc(C(=O)N/N=C(\c2ccccc2)c2ccccn2)cc1 | 11.5 µM
9 | COc1ccc(C(CC(=O)NCc2ccccc2)Sc2n[nH]c(-c3ccccc3)n2)cc1 (stereo not given) | 33 µM
10 | O=C(C1=C[C@@H](C2CC2)C[C@@H](OCCCCO)O1)N1CCN(Cc2ccc3c(c2)OCO3)CC1 | > 35 µM (inactive)
11 | Cc1ccc(Nc2c3c(nc4ccccc24)CCC3)cc1 | > 35 µM (inactive)
12 | C=CCN(c1ccccc1)S(=O)(=O)c1cccc(C(=O)Nc2ncccc2O)c1 | > 35 µM (inactive)
13 | O=C(N/N=C/c1cc(Cl)cc(Cl)c1O)c1ccncc1 | > 35 µM (inactive)
14 | COc1cccc(-c2cc(C(F)(F)F)n3nc(C(=O)N4CCC5(CC4)OCCO5)cc3n2)c1 | > 35 µM (inactive)
15 | CS(=O)(=O)n1nc(-c2ccccc2)nc1NCc1ccco1 | > 35 µM (inactive)
16 | CCN(C(=O)CSc1ncn[nH]1)C1CCCCC1 | > 35 µM (inactive)
17 | Cc1ccc(OC(C)C(=O)N2CC(=O)Nc3ccccc32)cc1 (stereo not given) | > 35 µM (inactive)
18 | COC(=O)C1=C(C)N(C)C(=O)NC1c1cc(Cl)c(O)c(OC)c1 (stereo not given) | > 35 µM (inactive)
19 | COc1ccc(N2CCN(S(=O)(=O)c3cc(-c4cc(C)no4)ccc3C(C)C)CC2)cc1 | > 35 µM (inactive)
20 | Cn1nnc(NC(=O)c2cccc([N+](=O)[O-])c2)n1 | > 35 µM (inactive)

Row | SMILES | EC50
21 | Cc1nnc(SCc2cccc(Cl)c2)n(N)c1=O | > 35 µM (inactive)
22 | CCOc1ccccc1NC(=O)COc1ccc2c(c1)OCO2 | > 35 µM (inactive)
23 | COc1ccc(C/C(C)=N/NS(=O)(=O)c2ccc(Br)cc2)cc1 | > 35 µM (inactive)
24 | O=C(CSc1nc2ccccc2c(=O)[nH]1)Nc1ccc(Br)cc1 | > 35 µM (inactive)
25 | CCN(CC)CCOc1ccc2c(c1)C(=NO)c1cc(OCCN(CC)CC)ccc1-2 | > 35 µM (inactive)
26 | CCCn1c(SCC(=O)N2CCc3ccccc3C2)nc2c1c(=O)n(C)c(=O)n2C | > 35 µM (inactive)
27 | COC(=O)CN1C(=O)[C@H]2[C@@H](c3ccc(C)o3)N3C(=O)CN(CC4CC4)C(=O)[C@@]3(Cc3ccccc3)[C@H]2C1=O | > 35 µM (inactive)
28 | Oc1ccc(-c2cn3ccccc3n2)cc1O | > 35 µM (inactive)
29 | COc1cccc2sc(N3CCN(C(=O)c4ccc([N+](=O)[O-])o4)CC3)nc12 | > 35 µM (inactive)
30 | COc1ccc2nc(NC(=O)c3cccs3)sc2c1 | > 35 µM (inactive)
31 | CCOC(=O)c1c(S(=O)(=O)N2CCC(C)CC2)c(C)n(C)c1C | > 35 µM (inactive)
32 | Cc1cc(NC(=O)C2CC(=O)N(c3cccc(C)c3C)C2)no1 (stereo not given) | 33.3 µM
33 | COc1ccc2cc3c(N)nn(C(=O)Cc4c[nH]c5ccccc45)c3nc2c1 | > 35 µM (inactive)
34 | CCCn1c2ccccc2c2cnn(CC(=O)NC3CCCC(C)C3C)c(=O)c21 (stereo not given) | 7.26 µM
35 | CC(C)COc1ccc(C(=O)Nc2ccc([N+](=O)[O-])cc2)cc1 | > 35 µM (inactive)
36 | COc1cccc(/C=N/Nc2nccnc2Cl)c1O | 6.36 µM
37 | Cc1nc2nc(-c3ccco3)nn2c(C)c1Cl | > 35 µM (inactive)
38 | COc1ccc2cc(C(C)C(=O)N3CCC(C(N)=O)CC3)ccc2c1 (stereo not given) | > 35 µM (inactive)
39 | CCOCC(=O)Nc1ccc(S(=O)(=O)N2CCC(c3nc4ccccc4[nH]3)CC2)cc1 | > 35 µM (inactive)
40 | Cc1ccc(Nc2nc(CSc3nnc(-c4ccncc4)n3C)cs2)cc1 | > 35 µM (inactive)
